# Laboratory results taken from patent US20250034216A1, “STEREOSELECTIVE COVALENT LIGANDS FOR ONCOGENIC AND IMMUNOLOGICAL PROTEINS” (The Scripps Research Institute, priority 2021, published 2025).
# What was measured:
# NSUN3_C298 = molecular target: T1, NSUN3_C298 (Homo sapiens, UniProt Q9H649); experiment: IA-DTB cysteine engagement; assay type: binding; conditions: 22Rv1 cells, 20 μM probe, 1 h, relative to DMSO
# T1 construct: endogenous in cells; host or cells: 22Rv1
# T1 sequence (Q9H649 1-340): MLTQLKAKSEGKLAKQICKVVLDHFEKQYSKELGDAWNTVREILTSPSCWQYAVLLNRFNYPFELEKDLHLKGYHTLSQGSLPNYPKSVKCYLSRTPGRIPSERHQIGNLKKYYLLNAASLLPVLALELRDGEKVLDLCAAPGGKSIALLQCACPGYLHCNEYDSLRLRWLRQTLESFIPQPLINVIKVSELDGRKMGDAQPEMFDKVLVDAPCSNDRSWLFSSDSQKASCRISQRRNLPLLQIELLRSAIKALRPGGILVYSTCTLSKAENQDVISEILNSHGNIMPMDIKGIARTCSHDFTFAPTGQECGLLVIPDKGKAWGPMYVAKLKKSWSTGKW
# Procedure, shortened: (§1)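 Cells were treated in situ with electrophilic probes, then lysed, and the lysates (2 mg/mL protein) were labeled with IA-DTB for 1 h at ambient temperature. After reduction, alkylation and trypsin digestion, labeled peptides were streptavidin-enriched, TMT-labeled and fractionated. Engagement ratios are probe vs DMSO reporter intensities, averaged across replicates.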
# TBC1D13_C282 = molecular target: T2, TBC1D13_C282 (Homo sapiens, UniProt Q9NVG8); experiment: IA-DTB cysteine engagement; assay type: binding; conditions: 22Rv1 cells, 20 μM probe, 1 h, relative to DMSO
# T2 construct: endogenous in cells; host or cells: 22Rv1
# T2 sequence (Q9NVG8 1-400): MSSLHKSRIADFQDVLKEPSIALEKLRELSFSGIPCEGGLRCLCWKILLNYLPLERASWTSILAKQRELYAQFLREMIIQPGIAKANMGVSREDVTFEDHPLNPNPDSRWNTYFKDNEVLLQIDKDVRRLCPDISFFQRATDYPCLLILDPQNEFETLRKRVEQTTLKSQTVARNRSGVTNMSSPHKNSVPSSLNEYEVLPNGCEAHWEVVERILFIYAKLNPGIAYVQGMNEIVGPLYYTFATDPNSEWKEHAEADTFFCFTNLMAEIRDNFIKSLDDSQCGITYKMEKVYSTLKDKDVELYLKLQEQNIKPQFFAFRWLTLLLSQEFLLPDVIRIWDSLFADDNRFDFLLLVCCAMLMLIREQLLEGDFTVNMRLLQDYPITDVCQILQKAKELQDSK
# Procedure, shortened: as §1
% engagement NSUN3_C298 (NSUN3_C298) [%],% engagement TBC1D13_C282 (TBC1D13_C282) [%],SMILES
83,51.5,"C=CC(=O)N1C[C@H](c2ccc(Br)cc2)[C@H]1C(=O)Nc1cccc2cccnc12 [MY-3B, (2S,3S)-1-acryloyl-3-(4-bromophenyl)-N-(quinolin-8-yl)azetidine-2-carboxamide]"
55.5,1,"C=CC(=O)N1C[C@H](c2ccc(Br)cc2)[C@@H]1C(=O)Nc1cccc2cccnc12 [MY-1B, (2R,3S)-1-acryloyl-3-(4-bromophenyl)-N-(quinolin-8-yl)azetidine-2-carboxamide]"
38,−16,"C=CC(=O)N1C[C@H](c2ccc(Br)cc2)[C@H]1C(=O)Nc1cccc2cccnc12 [MY-3A, (2S,3S)-1-acryloyl-3-(4-bromophenyl)-N-(quinolin-8-yl)azetidine-2-carboxamide]"
35.5,75.75,"C=CC(=O)N1C[C@@H](c2ccc(Br)cc2)[C@H]1C(=O)Nc1cccc2cccnc12 [MY-1A, (2S,3R)-1-acryloyl-3-(4-bromophenyl)-N-(quinolin-8-yl)azetidine-2-carboxamide]"
